Tests used:
[1] = system: Candida albicans ATCC 38247; experiment: Antifungal MIC; format: cell-based; conditions: Col. F = C. albicans ATCC 38247
Text: (§1) In vitro antibacterial activity data were collected for the following Gram-positive bacteria: Staphylococcus aureus (ATCC 27660, ATCC 33591 and ATCC 43300, all methicillin resistant strains (MRSA's)); Streptococcus pneumoniae (ATCC 51422, a penicillin resistant strain (PRSP)), Enterococcus faecium (ATCC 51559, and/or a vancomycin resistant strain (VRE)). Additionally, antifungal activity data were collected for Candida albicans (ATCC 38247). Minimal inhibition concentrations (MIC's) were determined using the National Committee for Clinical Laboratory Standards (NCCLS) broth microdilution assay in microtiter plates, as set forth in: (1) the guidelines of the National Committee for Clinical Laboratory Standards (NCCLS) Document M7-A4 (NCCLS, 1997); (2) the guidelines of the National Committee for Clinical Laboratory Standards (NCCLS) Document M11-A4 (NCCLS, 1997); and (3) the guidelines and reference method of the National Committee for Clinical Laboratory Standards (NCCLS) Document M27-T (NCCLS, 1995). For antifungal essays, the method recommended in Murray, PR., 1995 Manual of Clinical Microbiology (ASM Press, Washington, D.C.), was employed.

[2] = system: methicillin resistant Staphylococcus aureus ATCC 33591; experiment: Murine neutropenic thigh model; format: in vivo; conditions: neutropenic CF1 mice, 50 mg/kg intravenously 2 h post infection, 24 hr after treatment, vehicle 8.03
Experimental: A S. aureus ATCC 33591 culture was grown to log phase overnight and diluted in phosphate buffered saline (pH 7.2) to an optical density of about 0.1 at 600 nm, giving an approximate concentration of 10^8 cfu/mL. The suspension was diluted 1:100 in phosphate buffered saline (pH 7.2) for a final concentration of 10^6 cfu/mL.
Outbred female CFI mice (approx. 20 gram body weight) were rendered netutropenic by treatment with cyclophosphamide (200 mg/kg body weight, intraperitoneal injection) at 2 and 4 days prior to inoculation. Groups of 5 mice were inoculated with 0.05 mL of the bacteria (approx. 10^6 cfu/mL) into the anterior thigh. Each group was treated intravenously two hours post infection with vehicle (phosphate buffered saline) or test compound. The mice were sacrificed at either 6 or 24 hrs after treatment and thighs were collected aseptically. Each thigh was weighed, placed into sterile saline, and homogenized. The tissue homogenates were diluted appropriately for plating on agar plates. Colony counts were recorded (cfu/gram) and compared to control groups.

S. aureus ATCC 33591 = experiment: NCCLS broth microdilution MIC; format: cell-based, Staphylococcus aureus; conditions: Col. B = S. aureus ATCC 33591 (MRSA)
Text: as §1

S. aureus ATCC 27660 = experiment: NCCLS broth microdilution MIC; format: cell-based, Staphylococcus aureus; conditions: Col. A = S. aureus ATCC 27660 (MRSA)
Text: as §1

[3] = system: Streptococcus pneumoniae ATCC 51422; experiment: NCCLS broth microdilution MIC; format: cell-based; conditions: Col. E = S. pneumoniae ATCC 51422 (PRSP)
Text: as §1

[4] = system: Enterococcus faecium ATCC 51559; experiment: NCCLS broth microdilution MIC; format: cell-based; conditions: Col. D = E. faecium ATCC 51559 (VRE)
Text: as §1

[5] = target: target sequence GACAATTAATCA (352 bp fragment, Plasmid C); experiment: Quantitative DNase I footprint titration; format: binding; conditions: 352 bp C, 22° C., pH 7.0, read-out: Dissociation Constant Kd
Text: (§2) Compounds (1) through (20) according to this invention were screened for their ability to bind to specified DNA target sequences, using DNase I footprinting. Generally, the procedure described in Dervan, WO 98/50582 (1998), was followed.
(§3) Three double stranded circular plasmids A, B, and C were used to prepare double stranded DNA-binding probes containing the target sequences for the DNase I footprint titration experiments. Plasmids A, B, and C had nucleotide sequences given by SEQ ID NO. I, SEQ ID NO. II, and SEQ ID NO. III, respectively.
(§4) The 3′-P32 end-labeled EcoRI/PvuII fragments from each plasmid were prepared by digesting the plasmids with EcoRI and PvuII with simultaneous fill-in using Sequenase v. 2.0, [alpha-P32]-deoxyadenosine-5′-triphosphate, and [alpha-P32]-thymidine-5′-triphosphate, and isolating the cloned fragments by nondenaturing gel electrophoresis. A and G sequencing reactions were carried out as described (See Maxam and Gilbert, Methods Enzymol., 1980, 65, 499-560; Iverson and Dervan, Methods Enzymol., 1987, 15, 7823-7830; Sambrook et al., 1989, Molecular Cloning, 2nd ed., Cold Spring Harbor Laboratory Press: Cold Spring Harbor, N.Y.) Standard methods were used for all DNA manipulations (Sambrook et al., ibid.) The cut sites for EcoRI and PvuII are indicated by bars in the respective maps of Plasmids A, B, and C in FIGS. 5, 6, and 7.
(§5) The 351 base pair dsDNA restriction fragment (SEQ ID NO. IV) of Plasmid A contained the target sequences AAAAAGCAAAAA, AAAAAGACAAAAA, and AAAAAGTACAAAAA. The 310 base pair dsDNA restriction fragment (SEQ ID NO. V) of Plasmid B contained the target sequences AGTACT, AATACT, and ATTACT. The 352 base pair dsDNA restriction fragment (SEQ ID NO. VI) of Plasmid C contained the target sequences TGACAATTAAT, GACAATTAATCA, AATTAATCAT, ACAATTA, and ACAATTAAT. These fragments were used for quantitative DNase I footprinting experiments. Compounds used in the method of this invention bind to at least one of the target sites with a equal to or less than 100 nM, preferably equal to or less than 50 nM, and more preferably equal to or less than 20 nM. The target sequences were selected for the identity with, or similarity to, promoter sites for bacterial genes.
(§6) Quantitative DNase I footprint titration experiments were carried out as described previously (Dervan, WO 98/50582, 1998) with the following changes. All reactions were carried out in a total volume of 400 μL, with compound stock solution or water added to 15,000 cpm radiolabeled restriction fragment affording final solution conditions of 10 mM Tris HCl, 10 mM KCl, 10 mM MgCl2, 5 mM CaCl2, pH 7.0 and 0.01 nM, 0.1 nM, 1.0 nM, 10.0 nM compound or no compound for reference lanes. The compounds were allowed to equilbrate at 22° C. for 16 h. Footprinting reactions were initiated with addition of 10 μL of a DNase I stock solution (at the appropriate concentration to give ˜50% intact DNA) containing 1 mM DTT and allowed to proceed for 7 min at 22° C. The reactions were stopped, ethanol precipitated, resuspended in loading buffer, heat denatured, and placed on ice as described previously (Dervan WO 98/50582, 1998). The reaction products were separated on a precast 8% polyacrylamide denaturing sequencing Castaway gel with 32 preformed wells from Stratagene in 1×TBE at 2000 V. Gels were dried according to the manufacturer and exposed to a storage phosphor screen (Molecular Dynamics). Quantitation and data analysis were carried out as described in Dervan, WO 98/50582, 1998.

[6] = target: target sequence […] (351 bp fragment, Plasmid A); experiment: Quantitative DNase I footprint titration; format: binding; conditions: AAAAAGTACAAAAA, 351 bp A; 22° C., pH 7.0; read-out: Dissociation Constant Kd
Text: as §2, §3, §4, §5, §6

S. aureus ATCC 43300 = experiment: NCCLS broth microdilution MIC; format: cell-based, Staphylococcus aureus; conditions: Col. C = S. aureus ATCC 43300 (MRSA)
Text: as §1

[7] = target: target sequence AATTAATCAT (352 bp fragment, Plasmid C); experiment: Quantitative DNase I footprint titration; format: binding; conditions: 352 bp C, 22° C., pH 7.0, read-out: Dissociation Constant Kd
Text: as §2, §3, §4, §5, §6

[8] = target: target sequence TGACAATTAAT (352 bp fragment, Plasmid C); experiment: Quantitative DNase I footprint titration; format: binding; conditions: 352 bp C, 22° C., pH 7.0, read-out: Dissociation Constant Kd
Text: as §2, §3, §4, §5, §6

| SMILES | Minimum Inhibitory Concentration (MIC) [1] [µg/mL] | Colony Count [2] [log cfu/gram] | Minimum Inhibitory Concentration (MIC) (S. aureus ATCC 33591) | Minimum Inhibitory Concentration (MIC) (S. aureus ATCC 27660) | Minimum Inhibitory Concentration (MIC) [3] | Minimum Inhibitory Concentration (MIC) [4] | Kd [5] [nM] | Kd [6] [nM] | Minimum Inhibitory Concentration (MIC) (S. aureus ATCC 43300) | Kd [7] [nM] | Kd [8] [nM] |
| --- | --- | --- | --- | --- | --- | --- | --- | --- | --- | --- | --- |
| Cn1cc(NC(=O)c2sccc2Cl)cc1C(=O)Nc1cc(-c2nc3ccc(C(=O)NCCN4CCOCC4)cc3[nH]2)n(C)c1 [Compound 12] | >32 | 6.96 | − (− = MIC > 2) | ++ (++ = MIC ≦ 1) | ++ (++ = MIC ≦ 1) | ++ (++ = MIC ≦ 1) | ≤ 0.1 |  |  |  |  |
| CN(C)CC(C)(C)CNC(=O)CCNC(=O)c1cc(NC(=O)c2cc(NC(=O)CCNC(=O)c3cc(NC(=O)c4cc(NC(=O)c5cc(Br)c(Br)s5)cn4C)cn3C)cn2C)cn1C [Compound 5] | >32 |  | ++ (++ = MIC ≦ 1) | ++ (++ = MIC ≦ 1) | ++ (++ = MIC ≦ 1) | − (− = MIC > 2) | 2 | 0.01 |  |  |  |
| Cn1cc(NC(=O)c2cc(NC(=O)c3cc(NC(=O)c4sc5ccccc5c4Cl)cn3C)cn2C)cc1C(=O)NCCN1CCOCC1 [Compound 8] | >32 |  | ++ (++ = MIC ≦ 1) | ++ (++ = MIC ≦ 1) | ++ (++ = MIC ≦ 1) | ++ (++ = MIC ≦ 1) |  |  | ++ (++ = MIC ≦ 1) | 0.2 |  |
| CC(C)N(CCNC(=O)CCNC(=O)c1cc(NC(=O)c2cc(NC(=O)CCNC(=O)c3cc(NC(=O)c4cc(NC(=O)c5cc(Br)c(Br)s5)cn4C)cn3C)cn2C)cn1C)C(C)C [Compound 2] | >32 |  | − (− = MIC > 2) | ++ (++ = MIC ≦ 1) | ++ (++ = MIC ≦ 1) | + (+ = MIC ≦ 2) |  | 0.2 |  |  | 10 |
| Cn1cc(NC(=O)c2cc(NC(=O)c3cc(NC(=O)c4sccc4Cl)cn3C)cn2C)cc1C(=O)NCCN1CCSCC1 [Compound 11] | >32 |  | − (− = MIC > 2) | + (+ = MIC ≦ 2) | ++ (++ = MIC ≦ 1) | + (+ = MIC ≦ 2) | ≤ 1 |  |  |  |  |
| Cn1cc(NC(=O)c2cc(NC(=O)c3cc(NC(=O)c4ccc(F)cc4F)cn3C)cn2C)cc1C(=O)NCCN1CCCCCC1 [Compound 15] | 8 |  | − (− = MIC > 2) | ++ (++ = MIC ≦ 1) | ++ (++ = MIC ≦ 1) | + (+ = MIC ≦ 2) |  |  |  | 2 |  |
| CCN(CC)CCCNC(=O)CCNC(=O)c1cc(NC(=O)c2cc(NC(=O)CCNC(=O)c3cc(NC(=O)c4cc(NC(=O)c5cc(Br)c(Br)s5)cn4C)cn3C)cn2C)cn1C [Compound 4] | >32 |  | ++ (++ = MIC ≦ 1) | ++ (++ = MIC ≦ 1) | ++ (++ = MIC ≦ 1) | − (− = MIC > 2) |  | 0.01 |  |  | 10 |
| Cn1cc(NC(=O)c2sc3ccccc3c2Cl)cc1-c1nc2ccc(C(=O)NCCN3CCCCC3)cc2[nH]1 [Compound 18] | >32 |  | ++ (++ = MIC ≦ 1) | ++ (++ = MIC ≦ 1) | ++ (++ = MIC ≦ 1) | ++ (++ = MIC ≦ 1) |  |  |  | 5 |  |
| Cn1cc(NC(=O)c2cc(NC(=O)CCNC(=O)c3cc(NC(=O)c4cc(NC(=O)c5cc(Br)c(Br)s5)cn4C)cn3C)cn2C)cc1C(=O)NCCC(=O)NCCN1CCCCC1 [Compound 3] | >32 |  | ++ (++ = MIC ≦ 1) | ++ (++ = MIC ≦ 1) | ++ (++ = MIC ≦ 1) | + (+ = MIC ≦ 2) |  | 0.01 |  |  | 2 |
| Cn1cc(NC(=O)c2sc3ccccc3c2Cl)cc1C(=O)Nc1cc(C(=O)NCCN2CCCCC2)n(CCN2CCOCC2)c1 [Compound 16] | 4 |  | ++ (++ = MIC ≦ 1) | ++ (++ = MIC ≦ 1) | ++ (++ = MIC ≦ 1) | ++ (++ = MIC ≦ 1) |  |  |  | 10 |  |

Reference: US20030199516A1, “Methods of treating infection by drug resistant bacteria” (Genesoft, Inc., priority 2001, published 2003)
